Laboratory results reported in the supplement of paper PMC10307832.

How the values were obtained:
Test in all cases: relative viability (nuclei count vs DMSO), 5 days (fraction); higher = more cells survive
CX-5461 = compound: Cc1cnc(CNC(=O)c2c(=O)c3ccc(N4CCCN(C)CC4)nc3n3c2sc2ccccc23)cn1 [CX-5461]
In short: (§1)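 Following overnight incubation at 37 °C, lung cancer cell lines in 1536-well plates were pinned with five library-drug doses (not always all listed) in √10 steps on vehicle-anchored plates. The cells then spent 5 days without medium change before a combined fix, permeabilisation and Hoechst stain, 4× imaging and MetaXpress nuclear counts. Viability is the treated-to-vehicle ratio of nuclei, taken as the median across plates. Only plates with control CV below 25% and at least one doubling passed.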

IMD-0354 = compound: O=C(Nc1cc(C(F)(F)F)cc(C(F)(F)F)c1)c1cc(Cl)ccc1O [IMD-0354]
In short: as §1

CX-5461 + Alpelisib = compound: Cc1cnc(CNC(=O)c2c(=O)c3ccc(N4CCCN(C)CC4)nc3n3c2sc2ccccc23)cn1 [CX-5461] + Cc1nc(NC(=O)N2CCC[C@H]2C(N)=O)sc1-c1ccnc(C(C)(C)C(F)(F)F)c1 [Alpelisib] (partner 2 µM)
In short: (§2)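 Five library-drug doses in √10 steps were combined with a fixed anchor-drug dose, or a single drug was given alone, by pin tool to lung cancer cell lines in 1536-well plates the day after seeding. Nuclei were stained and counted after 5 days. Relative viability is the nuclei count in treated wells over that in vehicle wells, taken as the median of duplicate plates.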

IMD-0354 + Pemetrexed = compound: O=C(Nc1cc(C(F)(F)F)cc(C(F)(F)F)c1)c1cc(Cl)ccc1O [IMD-0354] + Nc1nc2[nH]cc(CCc3ccc(C(=O)N[C@@H](CCC(=O)O)C(=O)O)cc3)c2c(=O)[nH]1 [Pemetrexed] (partner 0.2 µM)
In short: as §2

## COR-L23
CX-5461; 0.01 µM
  relative viability: 1.03
CX-5461; 0.03162 µM
  relative viability: 1.07
CX-5461; 0.1 µM
  relative viability: 0.758
CX-5461; 0.3162 µM
  relative viability: 0.973
CX-5461; 1 µM
  relative viability: 0.583
IMD-0354; 0.04 µM
  relative viability: 0.922
IMD-0354; 0.1265 µM
  relative viability: 1
IMD-0354; 0.4 µM
  relative viability: 0.422
IMD-0354; 1.265 µM
  relative viability: 0.13
IMD-0354; 4 µM
  relative viability: 0.14
CX-5461 + Alpelisib; first compound 0.01 µM
  relative viability: 0.81
CX-5461 + Alpelisib; first compound 0.03162 µM
  relative viability: 0.921
CX-5461 + Alpelisib; first compound 0.1 µM
  relative viability: 0.649
CX-5461 + Alpelisib; first compound 0.3162 µM
  relative viability: 0.725
CX-5461 + Alpelisib; first compound 1 µM
  relative viability: 0.342
IMD-0354 + Pemetrexed; first compound 0.04 µM
  relative viability: 0.205
IMD-0354 + Pemetrexed; first compound 0.1265 µM
  relative viability: 0.202
IMD-0354 + Pemetrexed; first compound 0.4 µM
  relative viability: 0.206
IMD-0354 + Pemetrexed; first compound 1.265 µM
  relative viability: 0.182
IMD-0354 + Pemetrexed; first compound 4 µM
  relative viability: 0.108

## COR-L 105
CX-5461; 0.01 µM
  relative viability: 0.933
CX-5461; 0.03162 µM
  relative viability: 0.894
CX-5461; 0.1 µM
  relative viability: 0.82
CX-5461; 0.3162 µM
  relative viability: 0.607
CX-5461; 1 µM
  relative viability: 0.508
IMD-0354; 0.04 µM
  relative viability: 1.05
IMD-0354; 0.1265 µM
  relative viability: 0.832
IMD-0354; 0.4 µM
  relative viability: 0.738
IMD-0354; 1.265 µM
  relative viability: 0.463
IMD-0354; 4 µM
  relative viability: 0.293
CX-5461 + Alpelisib; first compound 0.01 µM
  relative viability: 1.14
CX-5461 + Alpelisib; first compound 0.03162 µM
  relative viability: 0.942
CX-5461 + Alpelisib; first compound 0.1 µM
  relative viability: 1.26
CX-5461 + Alpelisib; first compound 0.3162 µM
  relative viability: 0.851
CX-5461 + Alpelisib; first compound 1 µM
  relative viability: 0.414
IMD-0354 + Pemetrexed; first compound 0.04 µM
  relative viability: 1.14
IMD-0354 + Pemetrexed; first compound 0.1265 µM
  relative viability: 1.23
IMD-0354 + Pemetrexed; first compound 0.4 µM
  relative viability: 0.802
IMD-0354 + Pemetrexed; first compound 1.265 µM
  relative viability: 0.699
IMD-0354 + Pemetrexed; first compound 4 µM
  relative viability: 0.402

## EKVX
CX-5461; 0.01 µM
  relative viability: 1.11
CX-5461; 0.03162 µM
  relative viability: 1.05
CX-5461; 0.1 µM
  relative viability: 1.05
CX-5461; 0.3162 µM
  relative viability: 0.677
CX-5461; 1 µM
  relative viability: 0.915
IMD-0354; 0.04 µM
  relative viability: 1
IMD-0354; 0.1265 µM
  relative viability: 0.972
IMD-0354; 0.4 µM
  relative viability: 0.589
IMD-0354; 1.265 µM
  relative viability: 0.915
IMD-0354; 4 µM
  relative viability: 0.358
CX-5461 + Alpelisib; first compound 0.01 µM
  relative viability: 0.93
CX-5461 + Alpelisib; first compound 0.03162 µM
  relative viability: 0.865
CX-5461 + Alpelisib; first compound 0.1 µM
  relative viability: 0.902
CX-5461 + Alpelisib; first compound 1 µM
  relative viability: 0.883
IMD-0354 + Pemetrexed; first compound 0.04 µM
  relative viability: 0.456
IMD-0354 + Pemetrexed; first compound 0.1265 µM
  relative viability: 0.347
IMD-0354 + Pemetrexed; first compound 1.265 µM
  relative viability: 0.234
IMD-0354 + Pemetrexed; first compound 4 µM
  relative viability: 0.201

## EMC-BAC-2
CX-5461; 0.01 µM
  relative viability: 0.962
CX-5461; 0.03162 µM
  relative viability: 0.909
CX-5461; 0.1 µM
  relative viability: 0.769
CX-5461; 0.3162 µM
  relative viability: 0.818
CX-5461; 1 µM
  relative viability: 0.488
IMD-0354; 0.04 µM
  relative viability: 1.02
IMD-0354; 0.1265 µM
  relative viability: 0.962
IMD-0354; 0.4 µM
  relative viability: 0.675
IMD-0354; 1.265 µM
  relative viability: 0.425
IMD-0354; 4 µM
  relative viability: 0.383
CX-5461 + Alpelisib; first compound 0.01 µM
  relative viability: 0.752
CX-5461 + Alpelisib; first compound 0.03162 µM
  relative viability: 0.833
CX-5461 + Alpelisib; first compound 0.1 µM
  relative viability: 0.782
CX-5461 + Alpelisib; first compound 0.3162 µM
  relative viability: 0.698
CX-5461 + Alpelisib; first compound 1 µM
  relative viability: 0.717
IMD-0354 + Pemetrexed; first compound 0.04 µM
  relative viability: 0.398
IMD-0354 + Pemetrexed; first compound 0.1265 µM
  relative viability: 0.399
IMD-0354 + Pemetrexed; first compound 0.4 µM
  relative viability: 0.338
IMD-0354 + Pemetrexed; first compound 1.265 µM
  relative viability: 0.319
IMD-0354 + Pemetrexed; first compound 4 µM
  relative viability: 0.306

## EPLC-272H
CX-5461; 0.01 µM
  relative viability: 0.994
CX-5461; 0.03162 µM
  relative viability: 0.886
CX-5461; 0.1 µM
  relative viability: 0.901
CX-5461; 1 µM
  relative viability: 0.922
IMD-0354; 0.04 µM
  relative viability: 1.21
IMD-0354; 0.1265 µM
  relative viability: 1.08
IMD-0354; 0.4 µM
  relative viability: 0.717
IMD-0354; 1.265 µM
  relative viability: 0.442
IMD-0354; 4 µM
  relative viability: 0.16
CX-5461 + Alpelisib; first compound 0.01 µM
  relative viability: 0.974
CX-5461 + Alpelisib; first compound 0.03162 µM
  relative viability: 1.06
CX-5461 + Alpelisib; first compound 0.1 µM
  relative viability: 0.961
CX-5461 + Alpelisib; first compound 1 µM
  relative viability: 0.876
IMD-0354 + Pemetrexed; first compound 0.04 µM
  relative viability: 0.332
IMD-0354 + Pemetrexed; first compound 0.1265 µM
  relative viability: 0.278
IMD-0354 + Pemetrexed; first compound 0.4 µM
  relative viability: 0.474
IMD-0354 + Pemetrexed; first compound 1.265 µM
  relative viability: 0.247
IMD-0354 + Pemetrexed; first compound 4 µM
  relative viability: 0.214

## H3255
CX-5461; 0.01 µM
  relative viability: 1.02
CX-5461; 0.03162 µM
  relative viability: 0.94
CX-5461; 0.1 µM
  relative viability: 0.921
CX-5461; 0.3162 µM
  relative viability: 0.609
CX-5461; 1 µM
  relative viability: 0.909
IMD-0354; 0.04 µM
  relative viability: 0.911
IMD-0354; 0.1265 µM
  relative viability: 1.01
IMD-0354; 0.4 µM
  relative viability: 0.621
IMD-0354; 1.265 µM
  relative viability: 0.601
IMD-0354; 4 µM
  relative viability: 0.362
CX-5461 + Alpelisib; first compound 0.01 µM
  relative viability: 0.763
CX-5461 + Alpelisib; first compound 0.03162 µM
  relative viability: 0.819
CX-5461 + Alpelisib; first compound 0.1 µM
  relative viability: 0.727
CX-5461 + Alpelisib; first compound 0.3162 µM
  relative viability: 0.403
CX-5461 + Alpelisib; first compound 1 µM
  relative viability: 0.73
IMD-0354 + Pemetrexed; first compound 0.04 µM
  relative viability: 0.588
IMD-0354 + Pemetrexed; first compound 0.1265 µM
  relative viability: 0.587
IMD-0354 + Pemetrexed; first compound 0.4 µM
  relative viability: 0.518
IMD-0354 + Pemetrexed; first compound 1.265 µM
  relative viability: 0.426
IMD-0354 + Pemetrexed; first compound 4 µM
  relative viability: 0.318

## HARA
CX-5461; 0.01 µM
  relative viability: 1.01
CX-5461; 0.03162 µM
  relative viability: 1.03
CX-5461; 0.1 µM
  relative viability: 0.957
CX-5461; 0.3162 µM
  relative viability: 0.728
CX-5461; 1 µM
  relative viability: 0.713
IMD-0354; 0.04 µM
  relative viability: 1.17
IMD-0354; 0.1265 µM
  relative viability: 0.88
IMD-0354; 0.4 µM
  relative viability: 0.537
IMD-0354; 1.265 µM
  relative viability: 0.154
IMD-0354; 4 µM
  relative viability: 0.205
CX-5461 + Alpelisib; first compound 0.01 µM
  relative viability: 0.926
CX-5461 + Alpelisib; first compound 0.03162 µM
  relative viability: 0.84
CX-5461 + Alpelisib; first compound 0.1 µM
  relative viability: 0.865
CX-5461 + Alpelisib; first compound 0.3162 µM
  relative viability: 0.73
CX-5461 + Alpelisib; first compound 1 µM
  relative viability: 0.799
IMD-0354 + Pemetrexed; first compound 0.04 µM
  relative viability: 0.318
IMD-0354 + Pemetrexed; first compound 0.1265 µM
  relative viability: 0.271
IMD-0354 + Pemetrexed; first compound 0.4 µM
  relative viability: 0.207
IMD-0354 + Pemetrexed; first compound 1.265 µM
  relative viability: 0.202
IMD-0354 + Pemetrexed; first compound 4 µM
  relative viability: 0.151

## HCC-15
CX-5461; 0.01 µM
  relative viability: 1.01
CX-5461; 0.03162 µM
  relative viability: 1.08
CX-5461; 0.1 µM
  relative viability: 0.978
CX-5461; 0.3162 µM
  relative viability: 0.833
CX-5461; 1 µM
  relative viability: 0.689
IMD-0354; 0.04 µM
  relative viability: 0.949
IMD-0354; 0.1265 µM
  relative viability: 0.935
IMD-0354; 0.4 µM
  relative viability: 0.663
IMD-0354; 1.265 µM
  relative viability: 0.16
IMD-0354; 4 µM
  relative viability: 0.15
CX-5461 + Alpelisib; first compound 0.01 µM
  relative viability: 0.937
CX-5461 + Alpelisib; first compound 0.03162 µM
  relative viability: 0.905
CX-5461 + Alpelisib; first compound 0.1 µM
  relative viability: 0.91
CX-5461 + Alpelisib; first compound 0.3162 µM
  relative viability: 0.89
CX-5461 + Alpelisib; first compound 1 µM
  relative viability: 0.779
IMD-0354 + Pemetrexed; first compound 0.04 µM
  relative viability: 0.211
IMD-0354 + Pemetrexed; first compound 0.1265 µM
  relative viability: 0.215
IMD-0354 + Pemetrexed; first compound 0.4 µM
  relative viability: 0.198
IMD-0354 + Pemetrexed; first compound 1.265 µM
  relative viability: 0.175
IMD-0354 + Pemetrexed; first compound 4 µM
  relative viability: 0.172
